Literature values in publication PMC9255981 (The Oncologist, 2022).

Tested on: patients
Details: phase I study ref [1],[2]

C=CC(=O)N1CCN(c2nc(=O)n(-c3c(C)ccnc3C(C)C)c3nc(-c4c(O)cccc4F)c(F)cc23)[C@@H](C)C1 [sotorasib]
grade of blood CPK increase events (all events): 1
Myalgia, regardless of causality: 10 % of patients
blood CPK increase: 3.9%
most frequent treatment-related AEs (>10%): diarrhea, AST increased, and ALT increased
